Source: patent US8394969B2, “Cyclic benzimidazole derivatives useful as anti-diabetic agents” (Merck Sharp & Dohme Corp., priority 2008, dated 2013)
Counter-ions that a name gives are not always drawn.

target: recombinant human AMPK complex 1 (containing α1β1γ1) (Homo sapiens, UniProt Q13131+Q9Y478); experiment: […] (in vitro AMPK activation assay); format: biochemical; details: not given
Sequence (Q13131 whole entry): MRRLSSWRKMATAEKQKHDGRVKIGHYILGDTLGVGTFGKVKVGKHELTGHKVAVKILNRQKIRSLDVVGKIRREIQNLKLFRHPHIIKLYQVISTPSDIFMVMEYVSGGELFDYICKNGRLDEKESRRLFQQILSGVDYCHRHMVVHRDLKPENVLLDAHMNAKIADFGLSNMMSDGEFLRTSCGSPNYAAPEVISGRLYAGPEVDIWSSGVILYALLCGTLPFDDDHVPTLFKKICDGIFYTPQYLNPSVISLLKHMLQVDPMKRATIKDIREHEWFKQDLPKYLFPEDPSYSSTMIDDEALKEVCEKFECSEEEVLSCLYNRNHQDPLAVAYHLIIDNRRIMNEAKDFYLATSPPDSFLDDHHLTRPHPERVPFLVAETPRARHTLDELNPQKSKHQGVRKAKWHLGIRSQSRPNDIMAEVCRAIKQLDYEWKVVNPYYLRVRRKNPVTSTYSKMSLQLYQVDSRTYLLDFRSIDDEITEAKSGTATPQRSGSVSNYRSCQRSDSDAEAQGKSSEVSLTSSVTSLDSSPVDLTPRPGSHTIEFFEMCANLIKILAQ
Sequence (Q9Y478 whole entry): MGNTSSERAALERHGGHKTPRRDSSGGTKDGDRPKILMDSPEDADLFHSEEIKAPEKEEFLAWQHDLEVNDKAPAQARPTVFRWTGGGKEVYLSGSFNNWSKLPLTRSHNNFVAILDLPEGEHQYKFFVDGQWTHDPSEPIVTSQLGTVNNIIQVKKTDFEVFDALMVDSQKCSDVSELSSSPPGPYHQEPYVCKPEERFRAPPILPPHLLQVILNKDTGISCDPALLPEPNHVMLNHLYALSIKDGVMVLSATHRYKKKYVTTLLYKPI
Sequence (P54619 whole entry partner): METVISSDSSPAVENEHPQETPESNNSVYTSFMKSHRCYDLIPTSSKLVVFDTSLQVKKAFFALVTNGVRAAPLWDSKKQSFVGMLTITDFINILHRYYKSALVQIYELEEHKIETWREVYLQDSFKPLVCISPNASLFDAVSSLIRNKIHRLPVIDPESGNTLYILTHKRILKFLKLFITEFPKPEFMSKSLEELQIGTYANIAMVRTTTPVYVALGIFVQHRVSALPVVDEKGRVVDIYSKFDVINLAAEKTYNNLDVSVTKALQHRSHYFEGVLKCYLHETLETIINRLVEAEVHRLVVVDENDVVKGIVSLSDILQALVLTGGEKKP

| Compound | EC50 [µM] |
| --- | --- |
| Cc1ccc(Oc2nc3cc(-c4ccc(-c5ccccc5)cc4)c(Cl)cc3[nH]2)cc1C(=O)O [Example 1, 5-[(5-biphenyl-4-yl-6-chloro-1H-benzimidazol-2-yl)oxy]-2-methylbenzoic acid] | 0.008 |

same assay, conditions: read-out: % Maximum AMP Activation of human AMPK Complex 1, recombinant human AMPK complex 1 (α1β1γ1); basal activity subtracted

| Compound | Emax [%] |
| --- | --- |
| Cc1ccc(Oc2nc3cc(-c4ccc(C(F)(F)F)cc4)c(Cl)cc3[nH]2)cc1C(=O)O [Example 337, Ammonium 5-({6-chloro-5-[4-(trifluoromethyl)phen-yl]-1H-benzimidazol-2-yl}oxy)-2-methylbenzoate] | > 80 |

same assay, conditions: recombinant human AMPK complex 1 (α1β1γ1); basal activity subtracted; read-out: % Maximum AMP Activation of human AMPK Complex 1

| Compound | Emax [%] |
| --- | --- |
| CC(=O)NS(=O)(=O)c1cccc(Oc2nc3cc(-c4ccc(-c5ccccc5)cc4)c(Cl)cc3[nH]2)c1 [Example 206, N-Acetyl-3-(5-biphenyl-4-yl-6-chloro-1H-benzoimidazol-2-yloxy)-benzenesulfonamide] | > 80 |
| Cc1ccc(Oc2nc3cc(C#Cc4ccc(=O)[nH]c4)c(Cl)cc3[nH]2)cc1C(=O)O [Example 128, 5-[6-Chloro-5-(6-oxo-1,6-dihydro-pyridin-3-ylethynyl)-1H-benzoimidazol-2-yloxy]-2-methyl-benzoic acid] | > 80 |
| CS(=O)(=O)NC(=O)c1cccc(Oc2nc3cc(-c4ccc(-c5ccccc5)cc4)c(Cl)cc3[nH]2)c1 [Example 225, N-[3-(5-Biphenyl-4-yl-6-chloro-1H-benzoimidazol-2-yloxy)-benzoyl]-methanesulfonamide] | > 80 |
| COC(=O)Cn1nnc(-c2cccc(Oc3nc4cc(-c5ccc(-c6ccccc6)cc5)c(Cl)cc4[nH]3)c2)n1 [Example 41, {5-[3-(5-Biphenyl-4-yl-6-chloro-1H-benzoimidazol-2-yloxy)-phenyl]-tetrazol-2-yl}-acetic acid methyl ester] | > 80 |
| COC(=O)c1ccc(Oc2nc3cc(-c4ccc(-c5ccccc5)cc4)c(Cl)cc3[nH]2)cc1O [Example 31, 4-(5-Biphenyl-4-yl-6-chloro-1H-benzoimidazol-2-yloxy)-2-hydroxy-benzoic acid methyl ester] | > 80 |
| O=C(O)CCc1ccc(Oc2nc3cc(-c4ccc(-c5ccccc5)cc4)c(Cl)cc3[nH]2)cc1 [Example 25, 3-[4-(5-Biphenyl-4-yl-6-chloro-1H-benzoimidazol-2-yloxy)-phenyl]-propionic acid] | > 80 |
| Cc1ccc(Oc2nc3cc(-c4ccc(C(C)C)c5[nH]ccc45)c(Cl)cc3[nH]2)cc1C(=O)O [Example 273, 5-[6-Chloro-5-(7-isopropyl-1H-indol-4-yl)-1H-benzoimidazol-2-yloxy]-2-methyl-benzoic acid] | > 80 |
| COc1ccc(C#Cc2cc3nc(Oc4ccc(C)c(C(=O)O)c4)[nH]c3cc2Cl)cc1 [Example 121, 5-[6-Chloro-5-(4-methoxy-phenylethynyl)-1H-benzoimidazol-2-yloxy]-2-methyl-benzoic acid] | > 80 |
| Cc1cc(Oc2nc3cc(-c4ccc(-c5ccccc5)cc4)c(Cl)cc3[nH]2)cc(C(=O)O)c1 [Example 50, 3-(5-Biphenyl-4-yl-6-chloro-1H-benzoimidazol-2-yloxy)-5-methyl-benzoic acid] | > 80 |
| Cn1ccc2cc(-c3cc4nc(Oc5ccc(CC(=O)O)cc5)[nH]c4cc3Cl)ccc21 [Example 243, {4-[6-Chloro-5-(1-methyl-1H-indol-5-yl)-1H-benzoimidazol-2-yloxy]-phenyl}-acetic acid] | > 80 |
| Cc1ccc(Oc2nc3cc(-c4ccc5[nH]c(-c6ccccc6)cc5c4)c(Cl)cc3[nH]2)cc1C(=O)O [Example 278, 5-[6-Chloro-5-(2-phenyl-1H-indol-5-yl)-1H-benzoimidazol-2-yloxy]-2-methyl-benzoic acid] | > 80 |
| Cc1ccc(Oc2nc3cc(-c4cnc5ccccc5c4)c(Cl)cc3[nH]2)cc1C(=O)O [Example 148, 2-(3-carboxy-4-methylphenoxy)-6-chloro-5-quinolin-3-yl-1H-3,1-benzimidazol-3-ium chloride] | > 80 |
| COC(=O)c1cc(Oc2nc3cc(C#Cc4ccc(F)cc4)c(Cl)cc3[nH]2)ccc1C [Example 114, 5-[6-Chloro-5-(4-fluoro-phenylethynyl)-1H-benzoimidazol-2-yloxy]-2-methyl-benzoic acid methyl ester] | > 80 |
| Cc1ccc(Oc2nc3cc(-c4ccc5c(ccn5CCO)c4)c(Cl)cc3[nH]2)cc1C(=O)O [Example 263, 5-({6-chloro-5-[1-(2-hydroxyethyl)-1H-indol-5-yl]-1H-benzimidazol-2-yl}oxy)-2-methylbenzoic acid] | > 80 |
| Cc1ccc(Oc2nc3cc(-c4ccc(-c5ccc[n+]([O-])c5)cc4)c(Cl)cc3[nH]2)cc1C(=O)O [Example 161, 5-{6-Chloro-5-[4-(1-oxy-pyridin-3-yl)-phenyl]-1H-benzoimidazol-2-yloxy}-2-methyl-benzoic acid] | > 80 |
| COC(=O)c1cc(Oc2nc3cc(-c4ccc(-c5ccccc5Cl)cc4)c(Cl)cc3[nH]2)ccc1C [Example 196, Methyl 5-{[6-chloro-5-(2′-chlorobiphenyl-4-yl)-1H-benzimidazol-2-yl]oxy}-2-methylbenzoate] | > 80 |
| Cc1ccc(Oc2nc3cc(C#Cc4ccc(C#N)cc4)c(Cl)cc3[nH]2)cc1C(=O)O [Example 92, 5-[6-Chloro-5-(4-cyano-phenylethynyl)-1H-benzoimidazol-2-yloxy]-2-methyl-benzoic acid] | > 80 |

| Compound | Emax [%] |
| --- | --- |
| Cc1ccc(Oc2nc3cc(-c4ccc5onc(C)c5c4)c(Cl)cc3[nH]2)cc1C(=O)O [Example 141, 5-[6-Chloro-5-(3-methyl-benzo[d]isoxazol-5-yl)-1H-benzoimidazol-2-yloxy]-2-methyl-benzoic acid] | > 80 |
| Cc1ccc(Oc2nc3cc(-c4ccc5c(C)n[nH]c5c4)c(Cl)cc3[nH]2)cc1C(=O)O [Example 240, 5-[6-Chloro-5-(3-methyl-1H-indazol-6-yl)-1H-benzoimidazol-2-yloxy]-2-methyl-benzoic acid] | > 80 |
| Cc1cc(Oc2nc3cc(-c4ccc(-c5ccccc5)cc4)c(Cl)cc3[nH]2)cc(O)c1C(=O)O [Example 27, 4-(5-Biphenyl-4-yl-6-chloro-1H-benzoimidazol-2-yloxy)-2-hydroxy-6-mehtyl-benzoic acid] | > 80 |
| Cc1ccc(Oc2nc3cc(C#Cc4ccc(C(O)C5CC5)cc4)c(Cl)cc3[nH]2)cc1C(=O)O (stereo not drawn) [Example 88, 5-{6-Chloro-5-[4-(cyclopropyl-hydroxy-methyl)-phenylethynyl]-1H-benzoimidazol-2-yloxy}-2-methyl-benzoic acid] | > 80 |
| Cc1ccc(Oc2nc3cc(-c4ccc5c(C)noc5c4)c(Cl)cc3[nH]2)cc1C(=O)O [Example 265, 5-[6-chloro-5-(3-methyl-benzo[d]isoxazol-6-yl)-1H-benzoimidazol-2-yloxy]-2-methyl-benzoic acid] | > 80 |
| COc1ccc(-c2ccc(-c3cc4nc(Oc5ccc(C)c(C(=O)O)c5)[nH]c4cc3Cl)cc2)cn1 [Example 201, 5-({6-chloro-5-[4-(6-methoxypyridin-3-yl)phenyl]-1H-benzimidazol-2-yl}oxy)-2-methylbenzoic acid] | > 80 |
| COc1ccc(-c2ccc(-c3cc4nc(Oc5cc(C)c(C)c(C(=O)O)c5)[nH]c4cc3Cl)cc2)cn1 [Example 315, 5-{6-Chloro-5-[4-(6-methoxy-pyridin-3-yl)-phenyl]-1H-benzoimidazol-2-yloxy}-2,3-dimethyl-benzoic acid] | > 80 |
| Cc1cc(Oc2nc3cc(-c4ccc5c(c4)OCCN5C)c(Cl)cc3[nH]2)cc(C(=O)O)c1C [Example 312, 5-[6-Chloro-5-(4-methyl-3,4-dihydro-2H-benzo[1,4]oxazin-7-yl)-1H-benzoimidazol-2-yloxy]-2,3-dimethyl-benzoic acid] | > 80 |
| Cc1ccc(Oc2nc3cc(-c4ccc([S+](C)[O-])cc4)c(Cl)cc3[nH]2)cc1C(=O)O (stereo not drawn) [Example 331, 2-(3-carboxy-4-methylphenoxy)-6-chloro-5-[4-(methylsulfinyl)phenyl]-1H-3,1-benzimidazol-3-ium formate] | > 80 |
| Cc1ccc(Oc2nc3cc(-c4cnn(C)c4)c(Cl)cc3[nH]2)cc1C(=O)O [Example 57, 5-[6-Chloro-5-(1-methyl-1H-pyrazol-4-yl)-1H-benzoimidazol-2-yloxy]-2-methyl-benzoic acid] | > 80 |
| Cc1ccc(Oc2nc3cc(-c4ccc5c(c4)CNC5=O)c(Cl)cc3[nH]2)cc1C(=O)O [Example 305, 5-[6-Chloro-5-(1-oxo-2,3-dihydro-1H-isoindol-5-yl)-1H-benzoimidazol-2-yloxy]-2-methyl-benzoic acid] | > 80 |
| Cc1ccccc1C#Cc1cc2nc(Oc3ccc(C)c(C(=O)O)c3)[nH]c2cc1Cl [Example 96, 5-(6-Chloro-5-o-tolylethynyl-1H-benzoimidazol-2-yloxy)-2-methyl-benzoic acid] | > 80 |
| Cc1ccc(Oc2nc3cc(-c4ccc5c(c4)CCNC5=O)c(Cl)cc3[nH]2)cc1C(=O)O [Example 237, 5-[6-Chloro-5-(1-oxo-1,2,3,4-tetrahydro-isoquinolin-6-yl)-1H-benzoimidazol-2-yloxy]-2-methyl-benzoic acid] | > 80 |
| Cc1ccc(Oc2nc3cc(-c4ccc5c(ccn5CC(F)(F)F)c4)c(Cl)cc3[nH]2)cc1C(=O)O [Example 351, 5-{6-Chloro-5-[1-(2,2,2-trifluoro-ethyl)-1H-indol-5-yl]-1H-benzoimidazol-2-yloxy}-2-methyl-benzoic acid] | > 80 |
| COC(=O)c1ccc(Oc2nc3cc(-c4ccc(-c5ccccc5)cc4)c(Cl)cc3[nH]2)cc1C(=O)OC [Example 10, 4-(5-Biphenyl-4-yl-6-chloro-1H-benzoimidazol-2-yloxy)-phthalic acid dimethyl ester] | > 80 |
| Cc1ccc(C(=O)O)cc1Oc1nc2cc(-c3ccc4c(ccn4C)c3)c(Cl)cc2[nH]1 [Example 216, 3-[6-Chloro-5-(1-methyl-1H-indol-5-yl)-1H-benzoimidazol-2-yloxy]-4-methyl-benzoic acid] | > 80 |

same assay, conditions: recombinant human AMPK complex 1 (α1β1γ1); read-out: EC50

| Compound | EC50 [µM] |
| --- | --- |
| Cc1ccc(Oc2nc3cc(-c4ccc(C(C)(C)O)cc4)c(Cl)cc3[nH]2)cc1C(=O)O [Example 183, 5-({6-chloro-5-[4-(1-hydroxy-1-methylethyl)phenyl]-1H-benzimidazol-2-yl}oxy)-2-methylbenzoic acid] | 0.016 |
